Laboratory results: patent US10501453B2, “Benzothiazole or benzoxazole compounds as SUMO activators” (Icahn School of Medicine at Mount Sinai, priority 2012, dated 2019)
Converted amounts (≈) assume the structure as drawn.

How the values were obtained:
[1] = Solubility (Table 2)
[2] = system: HEK-293 cells; assay: Toxicity (Table 2; cytotoxicity in the compound screen)
[3] = system: YFP-SUMO1; assay: YFP-SUMO1 accumulation (cell image) in HEK-293 cells expressing YFP-SUMO1 and pcDNA3.0-SERCA2a; assay type: cell-based; settings: increase vs. DMSO; for YFP accumulation: 10 μM, 24 hours; for fold induction at 10 µM: Homo sapiens, HEK293, 24 hours
Source text: (§1) The following antibodies were used for immunoblotting and immunoprecipitation (IP): polyclonal anti-SERCA2a (21th century Biochem Inc.), monoclonal anti-GAPDH (Sigma-Aldrich, catalog no. G8795), monoclonal anti-SUMO 1 (Cell Signaling Technology Inc., catalog no. 4930), anti-mouse horseradish peroxidase (HRP) (Pierce Biotechnology Inc., catalog no. 32430), and anti-rabbit HRP (Pierce Biotechnology Inc., catalog no. 32460). YFP-tagged SUMO1, pcDNA3.0-SERCA2a, and HA-tagged Ubc9 plasmids were used for the transfection. The plasmid DNA was amplified in the Escherichia coli strain DH5a and extracted by using a commercial purification kit (Qiagen, catalog no. 12263). Purified plasmid was resuspended in sterile TE buffer (10 mM Tris-HCl and 1 mM EDTA, pH 7.6). Only the preparation highest purity (A260/A280>1.8) was used for transfection. 1 μg of each plasmid was used for transfection. HEK-293 cells (American Type Culture Collection, catalog no. CRL-1873) were grown at 37° C. and under a 5% CO2 humidified atmosphere in Dulbecco's modified Eagle's medium (DMEM, Cellgro, catalog no. 10-0 13-CM) containing 10% fetal bovine serum (SAFC Bioscience, catalog no. 12107) and 100 i.u of penicillin/ml and 100 μg of streptomycin/ml. HEK-293 cells were seeded at a density of 3-5×10^5 cells per 60 mm culture dish in DMEM. The cells were transiently transfected using Lipofectamine 2000 (Invitrogen, catalog no. 11668) with indicated expression plasmids. After 24 hours, the cells were treated with either small molecules or dimethyl sulfoxide (DMSO, Sigma-Aldrich, catalog no. D2650).
(§2) Each compound was added at 10 μM. DMSO was used as a control. After 24 hours at 37° C., SERCA2a SUMOylation and functional analysis were determined.
Cellular permeability and potential activity of the compounds were examined by tracking of the YFP-SUMO1. HEK-293 cells expressing YFP-SUMOI and pcDNA3.0-SERCA2a were incubated with either 10 μM DMSO or 10 μM small molecules for 24 hours at 37° C. Fluorescent signals were monitored by fluorescence microscopy. HA-tagged Ubc9 expressing cells were served as a positive control.
The ability of the Example compound to SUMOylate SERCA2a was examined using an in vitro system in HEK 293 cells where both SERCA2a and SUMO 1 are expressed. The cellular permeability and potential activity of the Example compounds was examined by tracking of the YFP-SUM01. HEK-293 cells expressing YFP-SUM01 and pcDNA3.0-SERCA2a were treated with either 10 μM DMSO or 10 μM indicated Example 1 for 24 hrs. Fluorescent signals were monitored by fluorescence microscopy. HA-Ubc9 expressing cells were served as a positive control. The SERCA2a SUMOylation profiling was then analyzed by using the same cells (FIG. 1B, WCL, whole cell lysates; S-SERCA2a, SUMOylated SERCA2a).

[4] = system: SERCA2a; assay: SERCA2a SUMOylation assay in HEK-293 cells (immunoprecipitation/immunoblotting); assay type: cell-based; settings: compared with DMSO control; 10 μM
Source text: as §1, §2
Equal amounts of protein from either small molecule treated or DMSO treated cells or immunoprecipitates were resolved by 7.5% SDS-PAGE and transferred to nitrocellulose membranes (Bio-Rad, catalog no. 162-0112). The membranes were blocked for 1 hour at room temperature with 5% non-fat milk (Cell Signaling Technology Inc., catalog no. 9999) in TBST (10 mM Tris-HCl, 150 mM NaCl, and 0.05% tween-20, pH 8.0). The blots were incubated with specific primary antibodies at 4° C. for overnight. The blots were then washed five times for 10 minutes each with TBST and incubated for 1 hour with HRP-conjugated secondary antibodies in TBST with 5% non-fat milk. After five times TBST washes, the protein bands were visualized with enhanced chemiluminescence (Pierce Biotechnology Inc., catalog no. 32132) and exposed to x-ray film (Denville Scientific Inc., catalog no. E3012). GAPDH expression provided an internal control.
Post-transfection (48 hours), the HEK-293 cells were rinsed twice with phosphate-buffered saline (PBS, Cellgro, catalog no. 21-040-CM) and lysed in 1% Nonidet P-40 lysis buffer (Boston Bioproducts, catalog no. BP-119) with 10 mM N-ethylmaleimide (NEM, Sigma-Aldrich, catalog no. N3876) and […] inhibitor cocktail (Complete Mini Tablet, Roche Applied Science, catalog no. 11836153001). 2 mg of protein were mixed with the anti-SERCA2a antibodies for overnight at 4° C. in lysis buffer. Pre-washed protein A-Separose beads (Pierce Biotechnology Inc., catalog no. 20333) was added to each sample and incubated 1 hour at 4° C. with gentle rocking. Immunocomplexes were washed with lysis buffer three times and precipitated by centrifugation at 12000×g for 10 seconds. The immunocomplexes were resuspended in SDS sample buffer and subjected to immunoblotting. Controls for the immunoprecipitations were performed using an anti-rabbit IgG equal to that of the primary precipitating antibody. Ten percent of whole cell lysates used in the immunoprecipitation was loaded for subsequent immunoblotting.
The ability of the Example compound to SUMOylate SERCA2a was examined using an in vitro system in HEK 293 cells where both SERCA2a and SUMO 1 are expressed. […]

[5] = DMSO, organic solvent or mixture

| solubility [1, 5] [mM] | solubility ([1]; in DMSO (printed for the 10 mM cells)) | Compound | Toxicity [2] | YFP accumulation [3] | SERCA2a SUMOylation [4] | fold induction at 10 µM [3] |
| --- | --- | --- | --- | --- | --- | --- |
| < 2.5 | – | COc1cccc(-c2nnc(Nc3nc4cc(OC)ccc4s3)o2)c1 [Example 15, N-(5-methoxybenzo[d]thiazol-2-yl)-5-(3-methoxyphenyl)-1,3,4-oxadiazol-2-amine] | > 50% | Active | Not statistically significant | – |
| 5 (≈ 1920 µg/mL) | – | COc1ccc(-c2nnc(Nc3nc4cc(OC)c(OC)cc4s3)o2)cc1 [Example 17, N-(5,6-dimethoxybenzo[d]thiazol-2-yl)-5-(4-methoxyphenyl)-1,3,4-oxadiazol-2-amine] | Non-toxic | – | Not statistically significant | 2.2 |
| < 2.5 | – | COc1ccc2nc(Nc3nnc(-c4ccc(Cl)cc4)o3)sc2c1 [Example 10, 5-(4-chlorophenyl)-N-(6-methoxybenzo[d]thiazol-2-yl)-1,3,4-oxadiazol-2-amine] | > 50% | Active | Not statistically significant | – |
| 10 (≈ 3120 µg/mL) | – | Fc1cccc2sc(Nc3nnc(-c4ccccc4)o3)nc12 [Example 7, N-(4-fluorobenzo[d]thiazol-2-yl)-5-phenyl-1,3,4-oxadiazol-2-amine] | Non-toxic | – | Not statistically significant | 2.2 |

The remaining lines, values behind:

| Compound | solubility [1, 5] [mM] | solubility ([1]; in DMSO (printed for the 10 mM cells)) | Toxicity [2] | YFP accumulation [3] | SERCA2a SUMOylation [4] | fold induction at 10 µM [3] |
| --- | --- | --- | --- | --- | --- | --- |
| COc1ccc(-c2nnc(Nc3nc4cc(OC)ccc4s3)o2)cc1 [Example 16, N-(5-methoxybenzo[d]thiazol-2-yl)-5-(4-methoxyphenyl)-1,3,4-oxadiazol-2-amine] | < 2.5 | – | > 50% | Active | Not statistically significant | – |
| COc1cccc2sc(Nc3nnc(-c4ccc(F)cc4)o3)nc12 [Example 5, 5-(4-fluorophenyl)-N-(4-methoxybenzo[d]thiazol-2-yl)-1,3,4-oxadiazol-2-amine] | 10 (≈ 3420 µg/mL) | – | Non-toxic | – | Not statistically significant | 2.54 |
| COc1ccc(-c2nnc(Nc3nc4ccc(SC)cc4s3)o2)cc1 [Example 18, 5-(4-methoxyphenyl)-N-(6-(methylthio)benzo[d]thiazol-2-yl)-1,3,4-oxadiazol-2-amine] | < 2.5 | – | > 50% | Active | Not statistically significant | – |
| COc1ccc2nc(Nc3nnc(-c4ccccc4OC)o3)sc2c1 [Example 8, N-(6-methoxybenzo[d]thiazol-2-yl)-5-(2-methoxyphenyl)-1,3,4-oxadiazol-2-amine] | 10 (≈ 3540 µg/mL) | – | 30% | – | Not statistically significant | 2.37 |
| Fc1ccc(-c2nnc(Nc3nc4ccc(F)cc4s3)o2)cc1 [Example 12, N-(6-fluorobenzo[d]thiazol-2-yl)-5-(4-fluorophenyl)-1,3,4-oxadiazol-2-amine] | < 2.5 | – | > 50% | Active | Not statistically significant | – |
| Fc1ccc2nc(Nc3nnc(-c4ccccc4Cl)o3)sc2c1 [Example 11, 5-(2-chlorophenyl)-N-(6-fluorobenzo[d]thiazol-2-yl)-1,3,4-oxadiazol-2-amine] | < 2.5 | – | > 50% | Active | Not statistically significant | – |
| COc1ccc(-c2nnc(Nc3nc4ccc(OC)cc4s3)o2)cc1 [Example 9, N-(6-methoxybenzo[d]thiazol-2-yl)-5-(4-methoxyphenyl)-1,3,4-oxadiazol-2-amine] | – | Crystallized at 2.5 | Toxic | Active | Not statistically significant | – |
| COc1ccc(-c2nnc(Nc3nc4c(OC)cccc4s3)o2)c(OC)c1 [Example 6, 5-(2,4-dimethoxyphenyl)-N-(4-methoxybenzo[d]thiazol-2-yl)-1,3,4-oxadiazol-2-amine] | 10 (≈ 3840 µg/mL) | – | 30% | – | Not statistically significant | 2.93 |
| COc1cccc(-c2nnc(Nc3nc4ccc(F)cc4s3)o2)c1 [Example 13, N-(6-fluorobenzo[d]thiazol-2-yl)-5-(3-methoxyphenyl)-1,3,4-oxadiazol-2-amine] | < 2.5 | – | > 50% | Active | Not statistically significant | – |
